Reference: patent publication US20200255838A1, “Selenium Cancer Therapy” (University of Massachusetts, priority 2017, published 2020)

Experiments:
Format in all cases: cell-based
[1] = tested on: MDAMB468 and MDAMB231 cell lines; assay: Hydrogen selenide gas toxicity assay; conditions: gas from sodium selenide in 10% hydrochloric acid, 96-well plate
Description: We developed a novel gas toxicity assay in which hydrogen selenide was produced in one well of a 96-well plate and the toxic effects were measured in an adjacent well. As described, SEPHS2 KO or control KO was achieved via pLENTICRISPR lentiviral transduction, and then cells were subjected to hydrogen selenide gas toxicity. Hydrogen selenide gas was formed by dissolving sodium selenide in an acidic (10% Hydrochloric Acid) solution in the central wells of a 96-well culture plate. SEPHS2 KO and CTRL cells (for MDAMB468 and MDAMB231 cell lines) were pre-seeded at various distances from the source of hydrogen gas toxicity (distances were equal under both conditions). The viability of each set of cells was averaged and relative viability of the SEPHS2 KO cells relative to control KO cells for each cell line are shown in FIG. 8.

[2] = tested on: GPX4 and SEPHS2; assay: Selenoprotein expression after selenite supplementation of media; conditions: selenite supplemented to media
[3] = tested on: U251 cells; assay: Selenite toxicity / growth in KO cells
Description: FIGS. 2A-D provide evidence that SEPHS2 plays a detoxifying role in U251 GBM cell line. (A) Knockdown of either SEPHS2 or SEPSECS can block selenoprotein expression. (B) However, only SEPHS2 KO has significant toxicity. (C) Model for ‘pushing’ toxicity in which if SEPHS2 plays a detoxifying role, its KO should synergize with increased selenited input. (D) Synergy is indeed seen with 12 uM selenite treatment in conjunction with SEPHS2 KO. Growth is normalized to the already lower growth rate of the SEPHS2 KO cells, thus the bars in asterisks indicate (statistically significant) synergy.
We had classified SEPHS2 as a putative detoxifier as its substrate, selenide, is the most toxic form of selenium^12. The notion of SEPHS2 as a detoxifier has not 1 0 previously been explored, and SEPHS2 is simply known for its enzymatic role (which cannot be replaced by its isoform, SEPHS1^13) as an intermediate step in producing selenocysteine for selenocysteinyl-tRNA production. The selenocysteine producing pathway is a simple and linear pathway starting from dietary selenite—or selenite or other inorganic forms which can be converted to selenite, selenite being the most common form^14,15. Selenite is imported and converted through in an unclear manner to form selenide, which is then metabolized by SEPHS2 to form selenophosphate, accompanied by ATP hydrolysis. […]

SMILES	Viability of SEPHS2 KO cells relative to control KO cells under hydrogen selenide gas [1]	Expression of selenoproteins GPX4 and SEPHS2 [2]	Growth with selenite in conjunction with SEPHS2 KO ([3]; 12 uM selenite, U251, growth normalized to SEPHS2 KO cells)	Toxicity of high-dose selenite in SLC7A11 KO cells ([3]; 12 μM selenite, U251 cells, both guides against SLC7A11)
[SeH2] [hydrogen selenide gas, hydrogen selenide]	hypersensitive			
O=[Se](O)O [selenite]		increased expression	Synergy	complete rescue
